Consider three compounds from BindingDB's records for doi:10.1021/jm00018a001 (Smithkline Beecham Pharmaceuticals, 1995).

The target in assay [1] is Alpha-1B adrenergic receptor (Mesocricetus auratus) (UniProt P18841). The assay can be described thus: Binding affinity against Alpha-1B adrenergic receptor from hamster clones.
Assay [2] has the same target. The assay is described as follows: The compound was tested for binding affinity against Alpha-1B adrenergic receptor, from hamster clones.

Sequence of Alpha-1B adrenergic receptor (Mesocricetus auratus) (P18841 whole entry, looked up): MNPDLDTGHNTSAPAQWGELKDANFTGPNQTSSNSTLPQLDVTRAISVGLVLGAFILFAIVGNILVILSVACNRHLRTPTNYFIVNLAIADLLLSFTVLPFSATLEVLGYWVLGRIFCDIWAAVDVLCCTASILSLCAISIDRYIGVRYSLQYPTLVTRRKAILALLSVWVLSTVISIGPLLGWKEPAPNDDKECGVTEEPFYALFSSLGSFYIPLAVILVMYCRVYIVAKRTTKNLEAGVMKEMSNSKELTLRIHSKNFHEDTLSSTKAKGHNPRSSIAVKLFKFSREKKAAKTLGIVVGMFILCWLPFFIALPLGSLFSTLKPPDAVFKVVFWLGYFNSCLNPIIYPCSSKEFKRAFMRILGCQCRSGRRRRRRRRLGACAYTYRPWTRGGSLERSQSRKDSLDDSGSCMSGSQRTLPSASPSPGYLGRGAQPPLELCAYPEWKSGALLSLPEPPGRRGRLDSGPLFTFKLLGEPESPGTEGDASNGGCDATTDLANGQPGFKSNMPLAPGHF

The compound `COc1cc2c(cc1OC)CN(c1cc(N)c3cc(OC)c(OC)cc3n1)CC2` registered a Ki in assay [1] of 0.11 nM.

On to `O=C(NC1CCN(CCc2c[nH]c3ccccc23)CC1)c1ccccc1` [N-{1-[2-(1H-Indol-3-yl)-ethyl]-piperidin-4-yl}-benzamide(indoramin)], for which the Ki in assay [2] worked out at 25 nM.

As for `COc1cc2nc(N(C)CCCNC(=O)C3CCCO3)nc(N)c2cc1OC` (stereo not drawn) [N-{3-[(4-amino-6,7-dimethoxyquinazolin-2-yl)(methyl)amino]propyl}tetrahydrofuran-2-carboxamide], the Ki in assay [1] was determined as 12 nM. In other words, the double-digit nanomolar range.

By Ki is commonly meant the equilibrium dissociation constant of an inhibitor or competing ligand from its target.
